Measured values reported in PMC9866191, “Novel 9-Benzylaminoacridine Derivatives as Dual Inhibitors of Phosphodiesterase 5 and Topoisomerase II for the Treatment of Colon Cancer” (Molecules, 2023).

Legend:
Assay in all cases: NCI-60 one-dose screen
Type in all cases: cell-based
786-0 = settings: Homo sapiens; 786-0, Renal Cancer panel; single dose 10^−5 M; read-out: Growth inhibition %
A549/ATCC = settings: Homo sapiens, Non-small cell lung panel, single dose 10^−5 M, read-out: Growth inhibition %
ACHN = settings: Homo sapiens, Renal Cancer panel, single dose 10^−5 M, read-out: Growth inhibition %
BT-549 = settings: Homo sapiens; BT-549, Breast Cancer panel; single dose 10^−5 M; read-out: Growth inhibition %
CAKI-1 = settings: Homo sapiens; CAKI-1, Renal Cancer panel; single dose 10^−5 M; read-out: Growth inhibition %
COLO 205 = settings: Homo sapiens; COLO 205, Colon Cancer panel; single dose 10^−5 M; read-out: Growth inhibition %
EKVX = settings: Homo sapiens, Non-small cell lung panel, single dose 10^−5 M, read-out: Growth inhibition %
HCT-116 = settings: Homo sapiens, read-out: Growth inhibition %
HL-60(TB) = settings: Homo sapiens, Leukemia panel, single dose 10^−5 M, read-out: Growth inhibition %
HOP-62 = settings: Homo sapiens; HOP-62, Non-small cell lung panel; single dose 10^−5 M; read-out: Growth inhibition %
HOP-92 = settings: Homo sapiens; HOP-92, Non-small cell lung panel; single dose 10^−5 M; read-out: Growth inhibition %
HS 578T = settings: Homo sapiens, Breast Cancer panel, single dose 10^−5 M, read-out: Growth inhibition %
HT29 = settings: Homo sapiens, HT-29; HT29, Colon Cancer panel; single dose 10^−5 M; read-out: Growth inhibition %
M14 = settings: Homo sapiens; M14, Melanoma panel; single dose 10^−5 M; read-out: Growth inhibition %
MALME-3M = settings: Homo sapiens, Melanoma panel, single dose 10^−5 M, read-out: Growth inhibition %
MCF7 = settings: Homo sapiens; MCF7, Breast Cancer panel; single dose 10^−5 M; read-out: Growth inhibition %
MDA-MB-468 = settings: Homo sapiens; MDA-MB-468, Breast Cancer panel; single dose 10^−5 M; read-out: Growth inhibition %
NCI-H23 = settings: Homo sapiens; NCI-H23, Non-small cell lung panel; single dose 10^−5 M; read-out: Growth inhibition %
NCI-H322M = settings: Homo sapiens, Non-small cell lung panel, single dose 10^−5 M, read-out: Growth inhibition %
NCI-H522 = settings: Homo sapiens; NCI-H522, Non-small cell lung panel; single dose 10^−5 M; read-out: Growth inhibition %
NCI/ADR-RES = settings: Homo sapiens, Ovarian Cancer panel, single dose 10^−5 M, read-out: Growth inhibition %
OVCAR-4 = settings: Homo sapiens; OVCAR-4, Ovarian Cancer panel; single dose 10^−5 M; read-out: Growth inhibition %
PC-3 = settings: Homo sapiens; PC-3, Prostate Cancer panel; single dose 10^−5 M; read-out: Growth inhibition %
SF-295 = settings: Homo sapiens; SF-295, CNS Cancer panel; single dose 10^−5 M; read-out: Growth inhibition %
SK-MEL-2 = settings: Homo sapiens; SK-MEL-2, Melanoma panel; single dose 10^−5 M; read-out: Growth inhibition %
SK-MEL-5 = settings: Homo sapiens; SK-MEL-5, Melanoma panel; single dose 10^−5 M; read-out: Growth inhibition %
SN12C = settings: Homo sapiens, Renal Cancer panel, single dose 10^−5 M, read-out: Growth inhibition %
SNB-75 = settings: Homo sapiens; SNB-75, CNS Cancer panel; single dose 10^−5 M; read-out: Growth inhibition %
SW-620 = settings: Homo sapiens; SW-620, Colon Cancer panel; single dose 10^−5 M; read-out: Growth inhibition %
T-47D = settings: Homo sapiens, T47D, Breast Cancer panel, single dose 10^−5 M, read-out: Growth inhibition %
U251 = settings: Homo sapiens, U-251; U251, CNS Cancer panel; single dose 10^−5 M; read-out: Growth inhibition %
UACC-257 = settings: Homo sapiens; UACC-257, Melanoma panel; single dose 10^−5 M; read-out: Growth inhibition %
UACC-62 = settings: Homo sapiens; UACC-62, Melanoma panel; single dose 10^−5 M; read-out: Growth inhibition %

SMILES | inhibition at 10 µM (786-0) | inhibition at 10 µM (A549/ATCC) | inhibition at 10 µM (ACHN) | inhibition at 10 µM (BT-549) | inhibition at 10 µM (CAKI-1) | inhibition at 10 µM (COLO 205) | inhibition at 10 µM (EKVX) | inhibition at 10 µM (HCT-116) | inhibition at 10 µM (HOP-62) | inhibition at 10 µM (HS 578T) | inhibition at 10 µM (HT29) | inhibition at 10 µM (M14) | inhibition at 10 µM (MALME-3M) | inhibition at 10 µM (MCF7) | inhibition at 10 µM (MDA-MB-468) | inhibition at 10 µM (NCI-H23) | inhibition at 10 µM (NCI-H322M) | inhibition at 10 µM (NCI-H522) | inhibition at 10 µM (NCI/ADR-RES) | inhibition at 10 µM (OVCAR-4) | also measured
c1ccc(CNc2c3ccccc3nc3ccccc23)cc1 [Compound 1, Acridin-9-yl-benzyl-amine] | 65.7% | 71.5% | 81.9% | 27.2% | 66.9% | 92.7% | 51.9% | 91.6% | 54% | 43.9% | 81% | 67.7% | 62.6% | 88% | 80.7% | 58.8% | 53.7% | 43.2% | 62.4% | 56.8% | inhibition at 10 µM (HL-60(TB)): 56.2%; inhibition at 10 µM (HOP-92): 74.1%; inhibition at 10 µM (PC-3): 62.8%; inhibition at 10 µM (SF-295): 62.4%; inhibition at 10 µM (SK-MEL-2): 39.2%; inhibition at 10 µM (SK-MEL-5): 36.9%; inhibition at 10 µM (SN12C): 62.5%; inhibition at 10 µM (SNB-75): 35.6%; inhibition at 10 µM (SW-620): 75.5%; inhibition at 10 µM (T-47D): 62.2%; inhibition at 10 µM (U251): 61.5%; inhibition at 10 µM (UACC-257): 47.3%; inhibition at 10 µM (UACC-62): 39%
COc1cccc(CNc2c3ccccc3nc3ccccc23)c1OC [Compound 16, Acridin-9-yl-(2,3-dimethoxybenzyl)-amine] | 61.2% | 69.7% | 78.9% | 40.3% | 66.3% | 78.5% | 63.7% | 88.2% | 48.8% | 35.7% | 85.6% | 65.5% | 49.4% | 89.9% | 98.9% | 67.6% | 58.4% | 59.9% | 66.8% | 63.4% | inhibition at 10 µM (HOP-92): 102%; inhibition at 10 µM (PC-3): 62.4%; inhibition at 10 µM (SF-295): 67%; inhibition at 10 µM (SK-MEL-2): 20.8%; inhibition at 10 µM (SK-MEL-5): 44.2%; inhibition at 10 µM (SN12C): 69.1%; inhibition at 10 µM (SNB-75): 32%; inhibition at 10 µM (SW-620): 74.6%; inhibition at 10 µM (T-47D): 52.5%; inhibition at 10 µM (U251): 65.5%; inhibition at 10 µM (UACC-257): 45.2%; inhibition at 10 µM (UACC-62): 48.7%
COc1ccc(CNc2c3ccccc3nc3ccc(OC)cc23)cc1 [Compound 27, (2-Methoxyacridin-9-yl)-(4-methoxybenzyl)-amine] | 85% | 85.4% | 89.8% | 57% | 80.1% | 151% | 75.8% | 87.3% | 65.9% | 74.1% | 103% | 80.5% | 92.9% | 130% | 115% | 78.6% | 76.5% | 73.8% | 83.8% | 81.6% | inhibition at 10 µM (HL-60(TB)): 121%; inhibition at 10 µM (PC-3): 94.5%; inhibition at 10 µM (SF-295): 80.6%; inhibition at 10 µM (SK-MEL-2): 59.1%; inhibition at 10 µM (SK-MEL-5): 88.9%; inhibition at 10 µM (SN12C): 79.2%; inhibition at 10 µM (SNB-75): 72.6%; inhibition at 10 µM (SW-620): 84.2%; inhibition at 10 µM (T-47D): 65.8%; inhibition at 10 µM (U251): 83.9%; inhibition at 10 µM (UACC-257): 93.4%; inhibition at 10 µM (UACC-62): 57.4%
COc1ccc2nc3ccccc3c(NCc3ccc(Cl)cc3)c2c1 [Compound 29, (4-Chlorobenzyl)-(2-methoxyacridin-9-yl)-amine] | 177% | 76.4% | 82.9% | 49.8% | 78.6% | 162% | 66.2% | 93.2% | 57.6% | 64% | 102% | 186% | 182% | 156% | 131% | 71.7% | 75.4% | 65.3% | 77.1% | 75.5% | inhibition at 10 µM (HL-60(TB)): 164%; inhibition at 10 µM (PC-3): 80.5%; inhibition at 10 µM (SF-295): 74.2%; inhibition at 10 µM (SK-MEL-2): 28.7%; inhibition at 10 µM (SK-MEL-5): 88.3%; inhibition at 10 µM (SN12C): 77.9%; inhibition at 10 µM (SNB-75): 42.4%; inhibition at 10 µM (SW-620): 87.2%; inhibition at 10 µM (T-47D): 50.7%; inhibition at 10 µM (U251): 97.5%; inhibition at 10 µM (UACC-257): 152%; inhibition at 10 µM (UACC-62): 35.2%
Cc1ccc2nc3ccccc3c(NCc3ccc(Cl)cc3)c2c1 [Compound 31, (4-Chlorobenzyl)-(2-methyl-acridin-9-yl)-amine] | 65.3% | 59.2% | 66.7% | 24.4% | 54.3% | 153% | 44.6% | 85.3% | 34.8% | 22.2% | 94.7% | 117% | 114% | 121% | 122% | 54% | 44.1% | 45.8% | 58% | 62.5% | inhibition at 10 µM (HOP-92): 105%; inhibition at 10 µM (PC-3): 60.9%; inhibition at 10 µM (SF-295): 56.3%; inhibition at 10 µM (SK-MEL-2): -1.95%; inhibition at 10 µM (SK-MEL-5): 46%; inhibition at 10 µM (SN12C): 60.5%; inhibition at 10 µM (SNB-75): 33.5%; inhibition at 10 µM (SW-620): 68%; inhibition at 10 µM (T-47D): 42.1%; inhibition at 10 µM (U251): 74.9%; inhibition at 10 µM (UACC-257): 103%; inhibition at 10 µM (UACC-62): 26%
